Source: US12037644B2, “Use of FGFR mutant gene panels in identifying cancer patients that will be responsive to treatment with an FGFR inhibitor” (Janssen Pharmaceutica NV, priority 2014, dated 2024)

Columns and labels:
[1] = tested on: RK3E-Transgene AFF3 (FGFR fusion stably transfected RK3E cells); test: Drug response testing (Cell Titer-Glo proliferation), RK3E FGFR2:AFF3; details: Rattus norvegicus, 72 h, read-out: Stimulated Proliferation (IC50)
Protocol: (§1) RK3E (rat kidney epithelial cells) cells were purchased from ATCC (Manassas, VA, USA) and cultured in DMEM supplemented with FBS and antibiotics (Invitrogen, Grand Island, NY, USA).
(§2) After 24 hours, cells were serum starved overnight, then re-fed with 0.5% FBS growth media. […] The Microtiter plates were then incubated for 72 hours and assayed for adenosine triphosphate (ATP; a marker of metabolically active cells) content using the Cell Titer-Glo® Luminescent Cell Viability assay (Promega Corp., Madison, WI, USA) following the manufacturer's instructions, with modifications. Briefly, cells were allowed to equilibrate to room temperature, at which time a 1:1 mixture of Cell Titer-Glo® reagent was added. Cells were then placed on an orbital shaker for 2 minutes and incubated for 10 minutes at room temperature to stabilize the luminescent signal. The luminescence was quantified and measurements were conducted using an Envision Multilabel plate reader (Perkin Elmer; Waltham, MA, USA).

[2] = tested on: RK3E-Transgene TACC3-V1 (FGFR fusion stably transfected RK3E cells); test: Drug response testing (Cell Titer-Glo proliferation), RK3E FGFR3:TACC3 v1; details: Rattus norvegicus, 72 h, read-out: Stimulated Proliferation (IC50)
Protocol: as §1, §2

[3] = tested on: RK3E-Transgene OFD1 (FGFR fusion stably transfected RK3E cells); test: Drug response testing (Cell Titer-Glo proliferation), RK3E FGFR2:OFD1; details: Rattus norvegicus, 72 h, read-out: Stimulated Proliferation (IC50)
Description: (§3) RK3E (rat kidney epithelial cells) cells were purchased from ATCC (Manassas, VA, USA) and cultured in DMEM supplemented with FBS and antibiotics (Invitrogen, Grand Island, NY, USA). FGFR fusion gene constructs were designed and cloned into the pReceiver expression vector (Genecopoeia, Rockville, MD, USA), which contains an HA-tag. Clones were transfected into RK3E cells using the Amaxa Cell Line Nucleofector (Lonza, Basel, Switzerland) following the manufacturer's protocol. The stably transfected cells were selected in complete medium with 800 ug/ml of G418 (Invitrogen).
as §2

RK3E-Transgene KRAS = test: Drug response testing (Cell Titer-Glo proliferation), RK3E KRAS; details: Rattus norvegicus, 72 h, read-out: Stimulated Proliferation (IC50)
Protocol: as §2

[4] = tested on: RK3E-Transgene CASP7 (FGFR fusion stably transfected RK3E cells); test: Drug response testing (Cell Titer-Glo proliferation), RK3E FGFR2:CASP7; details: Rattus norvegicus, 72 h, read-out: Stimulated Proliferation (IC50)
Description: as §3, §2

RK3E-Transgene FGFR2 = test: Drug response testing (Cell Titer-Glo proliferation), RK3E FGFR2; details: Rattus norvegicus, 72 h, read-out: Stimulated Proliferation (IC50)
Protocol: as §1, §2

[5] = tested on: FGFR fusion stably transfected RK3E cells; test: Drug response testing for FGFR-fusion overexpressing cell lines (overall statement); details: for sensitivity of cells harboring the FGFR fusions to the FGFR inhibitor in vitro: empty vector control did not show sensitivity
Protocol: as §2

RK3E-Transgene FGFR3 = test: Drug response testing (Cell Titer-Glo proliferation), RK3E FGFR3; details: Rattus norvegicus, 72 h, read-out: Stimulated Proliferation (IC50)
Protocol: as §2

[6] = tested on: phosphorylation of FGFR, MAPK and S6 in FGFR fusion stably transfected RK3E cells; test: Downstream target expression (immunoblotting); assay type: cell-based, rat; details: 1 μM, in the presence of ligands, 1 hour; FIGS. 14A-14H
Protocol: For immunoblotting, whole cell lysates were collected in RIPA buffer (Thermo Scientific, Waltham, MA, USA) and sample protein concentration was assayed using BCA Protein Assay (Thermo Scientific). Equal amounts of protein (30 μg per lane) were loaded onto on 4-12% Bis-Tris gels (Invitrogen) before an SDS-page was performed. Proteins were transferred to nitrocellulose membranes and probed with antibodies against p-FGFR, total-FGFR2, p-MAPK, total-MAPK, p-S6, total S6, B-actin (Cell Signaling Technology, Danvers, MA, USA), and total-FGFR3 (Santa Cruz, Dallas, TX, USA). The membranes were blocked with Odyssey blocking buffer for 1 h at room temperature and incubated overnight at 4° C. in a primary antibody solution diluted in Odyssey blocking buffer (1:1000). After three washes in 0.1% Tween tris buffered saline (TBST), the membranes were probed with goat anti-mouse or donkey anti-rabbit IR-Dye […] or 800 cw labeled secondary antisera in Odyssey blocking buffer for 1 h at room temperature. Washes were repeated after secondary labeling and the membranes were imaged using a LiCor Odyssey scanner and the Odyssey 3.0 analytical software (LiCor, Lincoln, NE, USA).

[7] = tested on: RK3E-Transgene TACC3-V3 (FGFR fusion stably transfected RK3E cells); test: Drug response testing (Cell Titer-Glo proliferation), RK3E FGFR3:TACC3 v3; details: Rattus norvegicus, 72 h, read-out: Stimulated Proliferation (IC50)
Protocol: as §1, §2

[8] = tested on: RK3E-Transgene BAIA2PL1 (FGFR fusion stably transfected RK3E cells); test: Drug response testing (Cell Titer-Glo proliferation), RK3E FGFR3:BAIAP2L1; details: Rattus norvegicus, 72 h, read-out: Stimulated Proliferation (IC50)
Protocol: as §2

[9] = tested on: RK3E-Transgene BICC1 (FGFR fusion stably transfected RK3E cells); test: Drug response testing (Cell Titer-Glo proliferation), RK3E FGFR2:BICC1; details: Rattus norvegicus, 72 h, read-out: Stimulated Proliferation (IC50)
Protocol: as §1, §2

[10] = tested on: RK3E-Transgene CCDC6 (FGFR fusion stably transfected RK3E cells); test: Drug response testing (Cell Titer-Glo proliferation), RK3E FGFR2:CCDC6; details: Rattus norvegicus, 72 h, read-out: Stimulated Proliferation (IC50)
Description: as §3, §2

[11] = tested on: RK3E-Transgene Vector (empty vector control RK3E cells); test: Drug response testing (Cell Titer-Glo proliferation), RK3E empty vector control; details: Rattus norvegicus, 72 h, read-out: Stimulated Proliferation (IC50)
Protocol: as §2

[12] = tested on: advanced solid tumors (patients with FGFR fusion genes / FGFR aberrations); test: Phase I First-In-Human study in patients with advanced solid tumor; assay type: in vivo; details: FIG. 11

Row | Compound | IC50 [1] | IC50 [2] | IC50 [3] | IC50 (RK3E-Transgene KRAS) | IC50 [4] | IC50 (RK3E-Transgene FGFR2) | sensitivity of cells harboring the FGFR fusions to the FGFR inhibitor in vitro [5] | IC50 (RK3E-Transgene FGFR3) | phosphorylation of FGFR and downstream targets MAPK and S6 (immunoblot) [6] | IC50 [7] | IC50 [8] | IC50 [9] | IC50 [10] | IC50 [11] | clinical responses (RECIST) ([12]; 9 mg once a day (QD), 12 mg QD and 12 mg 7d on/off, patients with the FGFR fusion genes) | maximal percentage reduction of sum of the diameters of targeted lesions from baseline (RECIST) ([12]; dose level >= 6 mg, daily or intermittent (7 days on - 7 days off), patients whose tumors harbor FGFR gene translocations and mutations) | sensitivity when compared to AZD4547 and NVP-BGJ398 ([5]; nanomolar concentration range)
1 | CCN1CCN(c2ccc(Nc3cc(N(C)C(=O)Nc4c(Cl)c(OC)cc(OC)c4Cl)ncn3)cc2)CC1 [NVP-BGJ398, 3-(2,6-Dichloro-3,5-dimethoxy-phenyl)-1-{6-[4-(4-ethyl-piperazin-1-yl)-phenylamino]-pyrimid-4-yl}-1-methyl-urea] | 2.27 nM | 2.59 nM | 16 nM | 2140 nM | 242 nM | > 10000 nM | showed sensitivity | 6340 nM | inhibited phosphorylation of FGFR and downstream targets i.e. MAPK and S6 | 4.09 nM | 5.16 nM | 18.2 nM | 10.7 nM | > 10000 nM | – | – | –
2 | COc1cc(CCc2cc(NC(=O)c3ccc(N4C[C@@H](C)N[C@@H](C)C4)cc3)n[nH]2)cc(OC)c1 [AZD4547, N-[5-[2-(3,5-Dimethoxyphenyl)ethyl]-2H-pyrazol-3-yl]-4-(3,5-diemthylpiperazin-1-yl)benzamide] | – | 16.5 nM | – | 1480 nM | – | – | showed sensitivity | 5690 nM | inhibited phosphorylation of FGFR and downstream targets i.e. MAPK and S6 | 8.66 nM | 11.5 nM | – | – | 8010 nM | – | – | –
3 | COc1cc(OC)cc(N(CCNC(C)C)c2ccc3ncc(-c4cnn(C)c4)nc3c2)c1 [JNJ-42756493, N-(3,5-dimethoxyphenyl)-N′-(1-methylethyl)-N-[3-(1-methyl-1H-pyrazol-4-yl)quinoxalin-6-yl]ethane-1,2-diamine] | – | – | – | – | – | – | – | – | inhibited phosphorylation of FGFR and downstream targets i.e. MAPK and S6 | – | – | – | – | – | Significant clinical responses | appear to be more sensitive | enhanced sensitivity
